Data on five compounds can be found in patent US20130078260A1, “COMPOUNDS TARGETING THE VEGF AND/OR HIF PATHWAY SUCH AS SORAFENIB OR VATALANIB FOR USE IN THE TREATMENT OF OTITIS MEDIA” (MEDICAL RESEARCH COUNCIL, priority 2010, published 2013).

Read-outs that look alike come from different tables or passages of the source. Marks after values point to notes of the source that are not given here.

Data set [1] deals with Jbo/+ mice. In words: Click-evoked Auditory Brain Stem response (ABR) change in drug-treated Junbo (Jbo/+) mice, chronic otitis media model. Format: in vivo, mouse. As to the method: (§1) Drug treatment, ABR and analysis of inflammation. […] The sham
(§2) Jbo/+ group was matched for age, gender and pre-trial ABR (30-60 dB) and received vehicle alone. A click-evoked ABR (Zheng, Q. Y., et al. (1999) Hearing Res. 130, 94-107) was measured at the beginning and end of the trial (or after 3 wk in the 50 mg/kg PTK787 trial). For ABR with recovery, anesthesia was induced by i.p. injection with a mixture of 10 mg/kg xylazine and 100 mg/kg ketamine and was reversed by 5 mg/kg atipamezole hydrochloride. Histology was assessed at 4 wk in both PTK787 trials.
(§3) Statistics. Student t-tests or Mann Whitney U tests (for ABR measurements where interval data was in 5 dB increments) were performed and test values p<0.05 were considered significant. Percentages were arcsine transformed before using t-tests. In the drug trials, 1-tailed tests were used compare drug and sham-treated groups, otherwise 2-tailed tests were used.

The test system of data set [2] is WT mice. In words: Click-evoked ABR change in drug-treated WT littermate mice. The format is in vivo, mouse. As to the method:
as §1, §2, §3

Data set [3] has as its system Jbo/+ mice middle ear mucosa. In words: Histological analysis of inflammation in middle ear mucosa of drug-treated Jbo/+ mice. Format: in vivo, mouse. As to the method:
as §1, §2
Image capture and analysis. Digital images were captured on an Olympus BX51 microscope using ×20, ×40 or ×60 Plan Achromat objectives with neutral density filter, on a ColorView Soft Imaging System software using automatic exposures. In the drug trials, H&E stained sections for image analysis were scanned at ×400 magnification on a Nanozoomer digital pathology system (Hamamatsu Photonics). Eardrum thickness and the thickness of the mucosa along its medial surface (avoiding the cochlea and the region adjacent to the opening of the Eustachian tube) were averaged from 5 measurements. The number of capillaries and lymphatic vessels and their respective diameters were measured in a standardized 1000 μm length of medial mucosa. The treatment and genotype were blinded from the assessor when making the morphological measurements.
as §3

Data set [4] has as its system mice. Conditions: mouse, in vivo, po.
Text: as §1

[5] abbreviates: both 50 mg/kg and 75 mg/kg trials, 4 wk, vs sham.

Regarding `CCN(CC)CCNC(=O)c1c(C)[nH]c(/C=C2\C(=O)Nc3ccc(F)cc32)c1C` [SU-11248], the “Effect on hearing loss” value in data set [1] (Junbo mice, 28 d treatment, vs sham (FIG. 6B)) is “moderates hearing loss”.
As for `CNC(=O)c1cc(Oc2ccc(NC(=O)Nc3ccc(Cl)c(C(F)(F)F)c3)cc2)ccn1` [BAY 43-9006], the “ΔABR (dB) WT” value in data set [2] (30 mg/kg, 15 days, mean ± SEM (n)) is given as −2.0 ± 1.2 (5) dB. Moreover, the Lymphatic vessel dilation in data set [3] (2 wk trial, n=11, sham 14.2±0.9 μm, P=0.0072) is 9.9±1.0 μm. For the same compound, the “Tolerability / adverse signs” value in data set [4] (Junbo (Jbo/+) mutant and WT, 2 wk) is “not as well tolerated as PTK787”; in data set [4], “mice suddenly became piloerect”. The “ΔABR (dB) Jbo/+ drug” value in data set [1] (Jbo/+ mice, 30 mg/kg, 15 days, oral gavage once a day, mean ± SEM (n)) is 0.9 ± 1.5 (11)^e dB. In data set [1] (Jbo/+ mice, treatment for 2 wk, vs sham control), the “Effect on hearing loss” value is reported as “reduced hearing loss”.
Consider `CN(CCOc1ccc(CC2SC(=O)NC2=O)cc1)c1ccccn1` (stereo not shown) [Rosiglitazone], for which, in data set [2] (20 mg/kg, 28 days, mean, SEM (n) printed in the row below), the “ΔABR (dB) WT” value stood at 1.4 dB. For the same compound, the “ΔABR (dB) Jbo/+ drug” value in data set [1] (Jbo/+ mice, 20 mg/kg, 28 days, mean, SEM (n) printed in the row below) was determined as 9.7 dB.
Turning to `Clc1ccc(Nc2nnc(Cc3ccncc3)c3ccccc23)cc1` [PTK787/ZK 222584], the “ΔABR (dB) WT” value in data set [2] (50 mg/kg, 21 days, mean ± SEM (n)) is −0.6 ± 1.1 (8) dB; in data set [2] (75 mg/kg, 28 days, mean ± SEM (n)), 0.0 ± 0.9 (8) dB. Moreover, in data set [3] (50 mg/kg trial, 4 wk, vs sham), the Mucosal thickening result is recorded as “moderated mucosal thickening”. In addition, the Lymphatic vessel dilation entry in data set [3] (75 mg/kg dosage group, 4 wk, vs sham) is “moderated”. In data set [3] (setting [5]), the “Angiogenesis (blood vessel number in mucosa)” value was “reduced”. The Lymphatic vessel number entry in data set [3] (setting [5]) was “reduced”.
As for `CO[C@H]1/C=C\C=C(/C)C(=O)NC2=CC(=O)C(NCCN(C)C)=C(C[C@@H](C)C[C@H](OC)[C@H](O)[C@@H](C)/C=C(\C)[C@@H]1OC(N)=O)C2=O` [17-DMAG, 17-dimethylaminoethylamino-17-demethoxy-geldanamycin], in data set [1] (Jbo/+ mice, 10 mg/kg, 28 d treatment, vs sham (FIG. 6E)), the “Effect on hearing loss” value is “moderated hearing loss”.
